Laboratory results taken from patent US20260231994A1, “TASTE-ENHANCING COMPOSITION, METHOD FOR PRODUCING SAME, FOOD PRODUCT, AND METHOD FOR ENHANCING TASTE OF FOOD PRODUCT” (HOUSE FOODS GROUP INC., priority 2023, published 2026).

Assays:
Type in all cases: in vivo
[1] = Experiment 6 sensory evaluation of cyclic dipeptides, “top sharp saltiness”
Method: (§1) An aqueous solution in which the concentration of each of the cyclic dipeptides shown in the table described below is set to be the same as its concentration in the heat-treated coriander prepared in 1.1. described above, as estimated from the ratio of the peak area of the cyclic dipeptides to the peak area of the internal standard (47 μg/g of L-lysine-^13C6 monohydrochloride) (hereinafter referred to as “heat-treated coriander equivalent aqueous solution”) was prepared. An aqueous solution in which the concentration of each of the cyclic dipeptides is set to be the same as its concentration in the heat-treated paprika of Example 203 prepared in 2.1 described above (hereinafter referred to as “heat-treated paprika equivalent aqueous solution”) was also prepared. Cyclic dipeptides prepared by the applicant were used in this experiment. As a cyclic dipeptide comprising Leu/Ile, a mixture comprising equal parts of cyclic dipeptide comprising Leu and cyclic dipeptide comprising Ile was used.
(§2) Common and reduced-sodium curry rouxes were prepared according to the procedures described in (1) and (2) of 1.3. described above.
(§3) Two dispersions of 44 g of the aforesaid reduced-sodium curry roux dispersed in 300 g of hot water were prepared. To one of them was added the heat-treated coriander equivalent solution or heat-treated paprika equivalent aqueous solution of the individual cyclic dipeptides shown in the table described below so as to be in the final concentration of 0.5% (w/w) or 1.0% (w/w), respectively.
(§4) Forty-four grams of the aforesaid common curry roux was dispersed in 300 g of hot water.
(§5) The dispersion of reduced-sodium curry roux dispersed in hot water and the dispersion of common curry roux dispersed in hot water were used as comparative controls, and the strength of the flavor was evaluated by three evaluators on the basis of the following evaluation criteria from the viewpoint of “top sharp saltiness”, “middle fullness (enhanced thickness) and “boosting of last flavor (aftertaste).”
(§6) The average of the evaluated scores was defined as “F” when it was 1.0 or lower, “C” when it was 1.1 or higher and 1.9 or lower, “B” when it was 2.0 or higher and 2.5 or lower, “A” when it was 2.6 or higher and 2.9 or lower, and “AA” when it was 3.0 or higher.
(§7) In the table described below, “ID” refers to the compound ID described above. The items of “coriander 0.5%” and “coriander 1.0%” refer to the addition of the aforesaid heat-treated coriander equivalent aqueous solution of cyclic dipeptide so that the final concentrations may be 0.5% (w/w) and 1.0% (w/w), respectively. The items of “paprika 0.5%” and “paprika 1.0%” refer to the addition of the aforesaid heat-treated paprika equivalent aqueous solution of cyclic dipeptide so that the final concentration may be 0.5% (w/w) and 1.0% (w/w), respectively.

[2] = Experiment 6 sensory evaluation of cyclic dipeptides, “middle fullness (enhanced thickness)”
Method: as §1, §2, §3, §4, §5, §6, §7

[3] = Experiment 6 sensory evaluation of cyclic dipeptides, “boosting of last flavor (aftertaste)”
Method: as §1, §2, §3, §4, §5, §6, §7

[4] = Additive amount coriander 0.5% (heat-treated coriander equivalent aqueous solution, final 0.5% (w/w)), reduced-sodium curry roux
[5] = Additive amount coriander 0.5%, reduced-sodium curry roux
[6] = heat-treated coriander equivalent aqueous solution of cyclic dipeptide, final 1.0% (w/w) in reduced-sodium curry roux dispersion
[7] = heat-treated coriander equivalent aqueous solution of cyclic dipeptide, final 1.0% (w/w) in reduced-sodium curry roux dispersion, 3 evaluators
[8] = Additive amount paprika 0.5% (heat-treated paprika equivalent aqueous solution, final 0.5% (w/w)), reduced-sodium curry roux
[9] = Additive amount paprika 0.5%, reduced-sodium curry roux
[10] = heat-treated paprika equivalent aqueous solution of cyclic dipeptide, final 1.0% (w/w) in reduced-sodium curry roux dispersion
[11] = heat-treated paprika equivalent aqueous solution of cyclic dipeptide, final 1.0% (w/w) in reduced-sodium curry roux dispersion, 3 evaluators

Substance | Top sharp saltiness Average [1, 4] [points] | Top sharp saltiness Evaluation [1, 5] | Top sharp saltiness Evaluation [1, 6] | Top sharp saltiness Average [1, 7] [points] | Middle fullness Average [2, 5] [points] | Middle fullness Evaluation [2, 5] | Middle fullness Evaluation [2, 6] | Middle fullness Average [2, 7] [points] | Bosting of last flavor Average [3, 5] [points] | Bosting of last flavor Evaluation [3, 5] | Bosting of last flavor Evaluation [3, 6] | Bosting of last flavor Average [3, 7] [points] | Top sharp saltiness Average [1, 8] [points] | Top sharp saltiness Evaluation [1, 9] | Top sharp saltiness Evaluation [1, 10] | Top sharp saltiness Average [1, 11] [points] | Middle fullness Average [2, 9] [points] | Middle fullness Evaluation [2, 9] | Middle fullness Evaluation [2, 10] | Middle fullness Average [2, 11] [points] | also measured
cyclic (Glu-His) [Coriander ID 6] | 3.2 | AA (“AA” when it was 3.0 or higher) | AA (“AA” when it was 3.0 or higher) | 4.0 | 3.3 | AA (“AA” when it was 3.0 or higher) | AA (“AA” when it was 3.0 or higher) | 3.8 | 3.0 | AA (“AA” when it was 3.0 or higher) | AA (“AA” when it was 3.0 or higher) | 3.7 |  |  |  |  |  |  |  |  | 
cyclic (Glu-Leu/Ile) [Coriander ID 47] | 2.3 | B (“B” when it was 2.0 or higher and 2.5 or lower) | B (“B” when it was 2.0 or higher and 2.5 or lower) | 2.2 | 2.8 | A (“A” when it was 2.6 or higher and 2.9 or lower) | B (“B” when it was 2.0 or higher and 2.5 or lower) | 2.3 | 3.0 | AA (“AA” when it was 3.0 or higher) | A (“A” when it was 2.6 or higher and 2.9 or lower) | 2.7 |  |  |  |  |  |  |  |  | 
cyclic (Glu-Phe) [Coriander ID 46] | 3.0 | AA (“AA” when it was 3.0 or higher) | B (“B” when it was 2.0 or higher and 2.5 or lower) | 2.5 | 2.8 | A (“A” when it was 2.6 or higher and 2.9 or lower) | A (“A” when it was 2.6 or higher and 2.9 or lower) | 2.7 | 2.8 | A (“A” when it was 2.6 or higher and 2.9 or lower) | B (“B” when it was 2.0 or higher and 2.5 or lower) | 2.5 |  |  |  |  |  |  |  |  | 
cyclic (Glu-Tyr) [Coriander ID 19] |  |  |  |  |  |  |  |  |  |  |  |  | 2.3 | B (“B” when it was 2.0 or higher and 2.5 or lower) | A (“A” when it was 2.6 or higher and 2.9 or lower) | 2.8 | 2.7 | A (“A” when it was 2.6 or higher and 2.9 or lower) | AA (“AA” when it was 3.0 or higher) | 3.0 | Bosting of last flavor Average [3, 9]: 2.5 points; Bosting of last flavor Evaluation [3, 9]: B (“B” when it was 2.0 or higher and 2.5 or lower); Bosting of last flavor Evaluation [3, 10]: A (“A” when it was 2.6 or higher and 2.9 or lower); Bosting of last flavor Average [3, 11]: 2.8 points
cyclic (Gly-Ala) [Coriander ID 57] | 2.0 | B (“B” when it was 2.0 or higher and 2.5 or lower) | B (“B” when it was 2.0 or higher and 2.5 or lower) | 2.2 | 2.0 | B (“B” when it was 2.0 or higher and 2.5 or lower) | B (“B” when it was 2.0 or higher and 2.5 or lower) | 2.5 | 2.3 | B (“B” when it was 2.0 or higher and 2.5 or lower) | A (“A” when it was 2.6 or higher and 2.9 or lower) | 2.7 |  |  |  |  |  |  |  |  | 
cyclic (Gly-Arg) [Coriander ID 7] | 2.5 | B (“B” when it was 2.0 or higher and 2.5 or lower) | C (“C” when it was 1.1 or higher and 1.9 or lower) | 1.3 | 3.2 | AA (“AA” when it was 3.0 or higher) | C (“C” when it was 1.1 or higher and 1.9 or lower) | 1.7 | 3.0 | AA (“AA” when it was 3.0 or higher) | C (“C” when it was 1.1 or higher and 1.9 or lower) | 1.5 |  |  |  |  |  |  |  |  | 
cyclic (Gly-Gly) [Coriander ID 54] | 2.2 | B (“B” when it was 2.0 or higher and 2.5 or lower) | A (“A” when it was 2.6 or higher and 2.9 or lower) | 2.8 | 2.5 | B (“B” when it was 2.0 or higher and 2.5 or lower) | A (“A” when it was 2.6 or higher and 2.9 or lower) | 2.7 | 3.0 | AA (“AA” when it was 3.0 or higher) | B (“B” when it was 2.0 or higher and 2.5 or lower) | 2.3 |  |  |  |  |  |  |  |  | 
cyclic (Gly-His) [Coriander ID 4] | 2.8 | A (“A” when it was 2.6 or higher and 2.9 or lower) | B (“B” when it was 2.0 or higher and 2.5 or lower) | 2.3 | 3.3 | AA (“AA” when it was 3.0 or higher) | A (“A” when it was 2.6 or higher and 2.9 or lower) | 2.7 | 3.5 | AA (“AA” when it was 3.0 or higher) | B (“B” when it was 2.0 or higher and 2.5 or lower) | 2.5 |  |  |  |  |  |  |  |  | 
cyclic (Gly-Leu/Ile) [Coriander ID 25] |  |  |  |  |  |  |  |  |  |  |  |  | 3.0 | AA (“AA” when it was 3.0 or higher) | A (“A” when it was 2.6 or higher and 2.9 or lower) | 2.8 | 2.7 | A (“A” when it was 2.6 or higher and 2.9 or lower) | A (“A” when it was 2.6 or higher and 2.9 or lower) | 2.7 | Bosting of last flavor Average [3, 9]: 3.0 points; Bosting of last flavor Evaluation [3, 9]: AA (“AA” when it was 3.0 or higher); Bosting of last flavor Evaluation [3, 10]: A (“A” when it was 2.6 or higher and 2.9 or lower); Bosting of last flavor Average [3, 11]: 2.7 points
cyclic (Gly-Phe) [Coriander ID 28] |  |  |  |  |  |  |  |  |  |  |  |  | 2.7 | A (“A” when it was 2.6 or higher and 2.9 or lower) | B (“B” when it was 2.0 or higher and 2.5 or lower) | 2.3 | 3.2 | AA (“AA” when it was 3.0 or higher) | B (“B” when it was 2.0 or higher and 2.5 or lower) | 2.5 | Bosting of last flavor Average [3, 9]: 3.2 points; Bosting of last flavor Evaluation [3, 9]: AA (“AA” when it was 3.0 or higher); Bosting of last flavor Evaluation [3, 10]: B (“B” when it was 2.0 or higher and 2.5 or lower); Bosting of last flavor Average [3, 11]: 2.5 points
